From US5858702A, “Isolation, cloning and expression of transmembrane water channel Aquaporin 5 (AQP5)” (The Johns Hopkins University, priority 1995, dated 1999)

What was measured:
CHIP28 = target: T1, CHIP28 (Homo sapiens, UniProt P29972); assay: Stopped-flow water flux (Pf) in CHIP28 proteoliposomes, effect of mercurial reagents; type: biochemical
T1 construct: was comprised of AQP1 (the 28-kDa protein itself and the 35-60-kDa glycosylated protein); from tissue; host or cells: human erythrocytes (blood-bank units; small-scale purifications from freshly drawn whole blood)
T1 sequence (P29972 2-269 limits assumed): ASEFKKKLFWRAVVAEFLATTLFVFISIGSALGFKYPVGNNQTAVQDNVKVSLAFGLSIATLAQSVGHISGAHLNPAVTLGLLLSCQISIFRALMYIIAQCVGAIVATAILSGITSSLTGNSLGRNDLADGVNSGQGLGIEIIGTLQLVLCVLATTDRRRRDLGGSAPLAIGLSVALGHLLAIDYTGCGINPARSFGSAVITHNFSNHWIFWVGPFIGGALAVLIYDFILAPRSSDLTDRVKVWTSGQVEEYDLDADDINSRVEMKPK
Experimental: Purified AQP1 was stored overnight at 0° C. or frozen for several days at -80° C. prior to reconstitution. Reconstitution into proteoliposomes was carried out in a final volume of 1 ml containing 60-90 μg of purified AQP 1 protein in chromatography buffer, 9 mg of bath-sonicated E. coli phospholipid, 1.25% (w/v) octyl glucoside, and 50 mM Tris-HCl (pH 7.5). The mixture was briefly blended on a vortex mixer and incubated for 20 minutes on ice. Proteoliposomes (or liposomes prepared without protein) were formed at room temperature by rapidly injecting the mixture into 25 ml of buffer A [50 mM MOPS, pH 7.5, 150 mM N-methyl-D-glucamine (NMDG) chloride also containing 10-15 mM carboxyfluorescein, 1 mM dithiothreitol, and 0.5 mM PMSF]. For the measurement of proton permeability, proteoliposomes and liposomes were loaded with buffer B (5 mM MOPS, pH 7.5, 150 mM KCl, 0.5 mM carboxyfluorescein, 1 mM dithiothreitol, and 0.5 mM PMSF). The suspension was incubated for 20 minutes at room temperature. Proteoliposomes or liposomes were collected by centrifugation for 1 hour at 123000×g in a Beckman Type 42.1 rotor at 4° C. The pellet was resuspended in 8 ml of buffer A or B and then centrifuged for 1 hour at 152000×g in a Beckman Type 50 Ti rotor. Proteoliposomes or liposomes were resuspended in 300 μl of buffer A or B and stored at 4° C. for 16-24 hours. Typically 50% (54±6%, n=5) of the AQP1 protein and 70% of the phospholipid were recovered in proteoliposomes. The lipid to protein ratio was in the range of 120:1 to 219:1. These proteoliposomes have internal volumes of 1 μl/mg of phospholipid (Ambudkar and Maloney, 1986, J. Biol. Chem. 261:10079-10086). Protein and phospholipid were measured as described by Ambudkar & Maloney (J. Biol. Chem., 1986, 261:10079-10086).
(§1) Permeability measurements. Membrane permeability measurements (Pf) were measured by exposing AQP1 proteoliposomes or control liposomes to an osmotic gradient by rapid mixing with an equal volume of another solution containing buffer A plus sufficient sucrose to increase osmolality in the mixed solutions to a value 120% of that in the original solution. This was performed with a stopped-flow fluorometer (SF.17MV, Applied Photophysics, Leatherhead, U.K.) with a measured dead time of 0.7 ms. The excitation wavelength was set at 490±1.5 nm using a 150-W mercury-xenon arc lamp and monochromator (.function.3.4 grating monochromator, both from Applied Photophysics); the emission wavelength was >515 nm using a cut-on filter (Oriel Corp., Stratford, Conn.). Extravesicular carboxyfluorescein fluorescence was completely quenched using anti-fluorescein antibody (Harris et al., 1990, Am. J. Physiol. 259:F366-F371).
Within the range of osmolalities used in these experiments, the vesicles acted as perfect osmometers, and relative volume (absolute volume divided by initial volume) was linearly related to relative fluorescence (absolute fluorescence divided by initial fluorescence). The data obtained from 8 to 16 determinations was averaged and fit to single-exponential curves using 5 software provided by Applied Photophysics (Zeidel et al., 1992, Biochemistry 31:589-596). The fitting parameters were then used to determine Pf by first applying the linear conversion from relative fluorescence to relative volume and then iteratively solving the water permeability equation using MathCAD software (MathSoft, Cambridge, Mass.):
dV(t)/dt=(Pf)(SAV)(MVW)[(Cin /V(t))-Cout ] (1)
where V(t) is relative intravesicular volume as a function of time, Pf is osmotic water permeability in centimeters per second, SAV is the vesicle surface area to volume ratio, MVW is the molar volume of water (18 cm^3 /mol), and Cin and Cout are the initial concentrations of total solute inside and outside the vesicle, respectively (Zeidel et al., 1992, Biochemistry 31:589-596).
Effect of mercural reagents.

[1] = Stopped-flow water flux (Pf) in control liposomes, effect of mercurial reagents; type: biochemical; settings: 1 mM mercurial
Experimental: Purified AQP1 was stored overnight at 0° C. or frozen for several days at -80° C. prior to reconstitution. Reconstitution into proteoliposomes was carried out in a final volume of 1 ml containing 60-90 μg of purified AQP 1 protein in chromatography buffer, 9 mg of bath-sonicated E. coli phospholipid, 1.25% (w/v) octyl glucoside, and 50 mM Tris-HCl (pH 7.5). The mixture was briefly blended on a vortex mixer and incubated for 20 minutes on ice. […] Protein and phospholipid were measured as described by Ambudkar & Maloney (J. Biol. Chem., 1986, 261:10079-10086).
as §1, with “The excitation wavelength was set at 490±1.5 nm using a 150-W mercury-xenon arc lamp and monochromator (.function.3.4 grating monochromator, both from Applied Photophysics); the emission wavelength was >515 nm using a cut-on filter (Oriel Corp., Stratford, Conn.).” left out, “259:F366-F371). […]” for “259:F366-F371).”

Red cell water channels = settings: submillimolar concentrations; cited from earlier work

reversal of inhibition by both mercurial reagents (CHIP28; β-mercaptoethanol 5 mM after pCMBS or HgCl2) | Compound | time to complete inhibition of Pf (CHIP28; 1 mM, 37° C.) | Pf in CHIP28 proteoliposomes after mercurial (CHIP28; 1 mM, 37° C. (FIG. 12: pCMBS 25 minutes, HgCl2 3 minutes)) | effect on the Pf of control liposomes [1] | inhibition of red cell water channels (Red cell water channels)
– | [Cl][Hg][Cl] [HgCl2] | ≤ 5 min | 0.007±0.003 cm/s | Neither pCMBS nor HgCl2 had any effect | can be inhibited by submillimolar concentrations
completely reversed | OCCS [β-mercaptoethanol] | – | – | – | –
